Experiments:
[1] = Pharmacokinetics of the indoloquinone-acetyl salicylic acid conjugate in carrageenin air pouch rats (HPLC of blood, exudate, urine); format: in vivo, male Wistar albino rats; details: rats with carrageenin air pouch, 20 mg conjugate injected, exudate and urine collected after 2 or 4 hours
Experimental: Pharmacokinetics of the indoloquinone-acetyl salicylic acid conjugate of Example 5 were studied as follows:
Three groups of male Wistar albino rats (n=5) received sterile air dorsally (day 1). After two days a further 20 ml sterile air were administered. On day 5, 2 ml of a 1% carrageenin in sterile saline was injected directly into the air pouch. Animals were housed in metabolic cages. 100 mg of the indoloquinone-aspirin conjugate of Example 5 were suspended in ethanol (2 ml). 50 mg acetyl salicylic acid was dissolved in 2 ml ethanol. 2 ml ethanol was used as a control. 18 ml sterile water were added to each sample. On day 9, each animal was injected with 4 ml of solution as follows: Group A—20 mg indoloquinone-aspirin conjugate Group B—10 mg acetyl salicylic acid Group C—ethanol (control) The animals were then returned to their cages for periods of either 2 (nos. 1, 2 and 3 from each group) or 4 hours (nos. 4 and 5 from each group). After this time the animals were anaesthetized and blood and exudate collected. Available urine was also collected.

[2] = Reduction initiated release of aspirin, product analysis (HPLC) following γ-radiolysis; format: physicochemical; details: reduction by (CH3)2C.OH radical; N2O-saturated solution, quinone 100 μM, 2-propanol 8.3M (50%, v/v), pH 7.4
Experimental: The reduction initiated release of aspirin from the indoloquinone-acetyl salicylic acid conjugate of Example 5 was investigated by product analysis (HPLC) following γ-radiolysis of N2O-saturated solutions containing the quinone (100 μM) and 2-propanol (8.3M, 50%, v/v) at pH 7.4.
The radiation chemical yield (G) of the (CH3)2C.OH radical in N2O-saturated 2-propanol/water mixtures was determined by ferricyanide reduction to be G((CH3)2C.OH)=0.67±0.02 μmol J^−1 in 2-propanol/water (50%, v/v) and 0.72±0.03 μmol J^−1 in 1 M 2-propanol respectively. […] Loss of the parent quinone (G(−Q)=1.63±0.01 μmol J^−1) parallel the formation of the aspirin leaving group (LG) with G(LG)=1.40±0.15 μmol J^−1.
Indolequinone solutions were saturated with N2O gas in gas-tight vials before irradiation in a ^60Co source. […] A dose rate of 6-6.5 Gy min^−1 was used, as determined by Fricke dosimetry and radiation chemical yields were corrected for the absorbed dose in the various alcohol-water mixtures employed.
Product analysis following γ-radiolysis was performed by gradient HPLC separation on a 100 mm×4.6 mm base-deactivated reverse-phase column (Hichrom RPB, Hichrom, Reading, U.K.). […] Detection was at 232 nm using a Waters 486 detector (Watford, U.K.) and concentrations were determined from peak areas using Waters Maxima software.

## COC1=CC(=O)c2c(c(COC(=O)c3ccccc3OC(C)=O)c(C)n2C)C1=O [Example 5, 3-(2-Acetoxybenzoyloxy)methyl-1,2-dimethyl-5-methoxyindole-4,7-dione]
[1]
  Cleavage of conjugate in collected samples (HPLC): cleaved to liberate acetyl salicylic acid
[2]
  Formation of the aspirin leaving group, radiation chemical yield G(LG): 1.40 ± 0.15 µmol/J
  Loss of the parent quinone, radiation chemical yield G(−Q): 1.63 ± 0.01 µmol/J

Reference: patent US7829555B1, “Drug targeting” (The University of Manchester, priority 1997, dated 2010)
